Results from patent publication US7205298B2, “Substituted triazine kinase inhibitors” (Janssen Pharmaceutica N.V., priority 2002, dated 2007).

Tests used:
[1] = target: T1, Casein Kinase 2 (Homo sapiens, UniProt P68400); assay: Kinase selectivity assay Casein Kinase 2; format: biochemical
T1 construct: purchased New England Biolabs 6010; host or cells: E. coli
Procedure: Assays to test compound inhibition of other kinases were preformed using methods that measure the amount of phosphorylation of a biotinylated peptide substrate. Biotinylated peptide substrates were selected from the literature as appropriate for the enzyme being evaluated. The general procedure used to assay for kinase activity is as follows: a kinase reaction mix was prepared in 50 mM Tris-HCl pH=8, 10 mM MgCl2, 0.1 mM Na3VO4, 1 mM DTT, 10 μM ATP, 0.25–1 μM biotinylated peptide substrate, 0.2–0.8 μCuries per well ^33P-γ-ATP (2000–3000 Ci/mmol). Assay conditions vary slightly for each protein kinase, for example, insulin receptor kinase requires 10 mM MnCl2 for activity and Calmodulin-dependent protein kinase requires calmodulin and 2 mM CaCl2. The reaction mixture was dispensed into the wells of a streptavidin coated Flashplate and 1 μL test compound in 100% DMSO was added to a 100 μL reaction volume resulting in a final concentration of 1% DMSO in the reaction. Enzyme was diluted in 50 mM Tris-HCl pH=8.0, 0.1% BSA and added to each well. The reaction was incubated for one hour at 30° C. in the presence of a test compound. […] The plate was read on a scintillation counter to determine ^33P-γ-ATP incorporated into the immobilized peptide substrate. […] A maximum and minimum signal for the assay was determined on each plate. […]

[2] = test system: HeLa cervical adenocarcinoma; assay: Inhibition of cell proliferation, 14C-thymidine incorporation, HeLa; format: cell-based; conditions: Homo sapiens
Procedure: The ability of a test compound to inhibit the proliferation of cell growth was determined by measuring incorporation of ^14C-labelled thymidine into newly synthesized DNA within the cells. This method was used on cell lines derived from carcinomas originating from several tissues such as HeLa cervical adenocarcinoma (American Type Culture Collection (ATCC), Virginia, Cat. #CCL-2), HCT-116 colon carcinoma (CCL-247), MDA-MB-231 (Xenogen Corp.), PC-3 prostate adenocarcinoma (ATCC CRL-1435) and A375 malignant melanoma (ATCC CRL-1619).
Using this method, the effect of a compound on cell growth of cells with many different phenotypes can be determined. Cells were trypsinized and counted and 3000–8000 cells were added to each well of a 96-well CytoStar tissue culture treated scintillating microplate (Amersham #RPNQ0160) in complete medium in a volume of 100 μl. Cells were incubated for 24 hours in complete medium at 37° C. in an atmosphere containing 5% CO2. 1 μL of test compound in 100% DMSO was then added to the wells of the plate. DMSO only was added to control wells. Cells were incubated for 24 more hours in complete medium at 37° C. in an atmosphere containing 5% CO2. […] The degree of methyl ^14C-thymidine incorporation was quantified on a Packard Top Count.

T1 sequence (P68400 whole entry): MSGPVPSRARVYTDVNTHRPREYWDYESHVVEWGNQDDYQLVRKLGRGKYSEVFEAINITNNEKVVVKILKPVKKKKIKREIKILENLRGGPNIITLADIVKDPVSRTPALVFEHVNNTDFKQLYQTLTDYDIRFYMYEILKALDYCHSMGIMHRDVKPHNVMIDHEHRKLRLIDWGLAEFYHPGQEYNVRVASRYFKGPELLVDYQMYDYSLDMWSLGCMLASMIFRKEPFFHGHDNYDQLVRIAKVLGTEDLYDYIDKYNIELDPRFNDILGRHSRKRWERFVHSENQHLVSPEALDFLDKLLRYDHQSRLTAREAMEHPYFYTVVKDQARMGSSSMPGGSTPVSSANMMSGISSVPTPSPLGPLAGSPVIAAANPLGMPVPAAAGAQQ
T1 sequence (P67870 whole entry partner): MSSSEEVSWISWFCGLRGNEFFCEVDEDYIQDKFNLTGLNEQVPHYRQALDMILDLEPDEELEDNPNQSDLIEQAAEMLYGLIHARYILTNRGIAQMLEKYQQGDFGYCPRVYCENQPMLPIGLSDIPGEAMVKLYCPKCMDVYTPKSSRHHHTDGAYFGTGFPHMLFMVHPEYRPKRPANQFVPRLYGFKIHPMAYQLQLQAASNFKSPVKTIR

Compound `OCCCNc1cc(-c2ncnc(Nc3cccc(Cl)c3)n2)ccn1` [Compound 2, 3-((4-(4-((3-chlorophenyl)amino)-1,3,5-triazin-2-yl)-2-pyridinyl)amino)-1-propanol] has an IC50 [1] of over 100000 nM and an IC50 [2] of 105 nM.

`OCCCNc1cncc(-c2ncnc(Nc3cccc(Cl)c3)n2)c1` [Compound 1, 3-((5-(4-((3-chlorophenyl)amino)-1,3,5-triazin-2-yl)-3-pyridinyl)amino)-1-propanol] showed an IC50 [1] of 926 nM and an IC50 [2] of 298 nM.
